Measurements from patent US20250290117A1, “MOLECULAR PHENOTYPIC ANTIMICROBIAL SUSCEPTIBILITY TESTING” (priority 2024, published 2025).

How the values were obtained:
Type in all cases: cell-based
Escherichia coli [1] = assay: Traditional culture-based antimicrobial susceptibility test
Procedure, shortened: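 E. coli isolates underwent conventional growth, isolation and exposure to antimicrobials, giving a culture-based susceptibility call for each agent.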

[2] = tested on: pathogens of clinical samples; assay: Molecular phenotypic antimicrobial susceptibility test of clinical samples, direct PCR without a separate DNA purification step (Table 6)
Procedure, shortened: (§1)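 Growth of clinical isolates under antimicrobials held at breakpoint concentrations was scored by semi-quantitative PCR against drug-free control wells. Exposure ran 12-16 hours from a 0.5 McFarland inoculum.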

[3] = tested on: pathogens of clinical samples; assay: Molecular phenotypic antimicrobial susceptibility test of clinical samples, extraction DNA purification step prior to PCR (Table 6)
Procedure, shortened: as §1

Escherichia coli [4] = assay: Molecular phenotypic antimicrobial susceptibility test (extraction or DNA purification prior to PCR)
Procedure, shortened: as §1

[5] = E. coli, clinical sample of r10-r24
[6] = E. coli, clinical sample of r158-r172
[7] = E. faecalis, clinical sample of r93-r99
[8] = E. faecalis, clinical sample of r100-r106
[9] = E. faecalis, clinical sample of r107-r113
[10] = E. faecalis, clinical sample of r114-r120
[11] = E. faecalis, clinical sample of r151-r157
[12] = K. aerogenes, clinical sample of r136-r150
[13] = K. pneumoniae, clinical sample of r121-r135
[14] = M. morganii, clinical sample of r55-r69
[15] = M. morganii, clinical sample of r70-r84
[16] = P. mirabilis, clinical sample of r25-r39
[17] = P. mirabilis, clinical sample of r40-r54

## CC1(C)S[C@@H]2[C@H](NC(=O)[C@H](N)c3ccccc3)C(=O)N2[C@H]1C(=O)O [Ampicillin]
Escherichia coli [1]; E. coli #1 - WDCM 00090 - 6.2×E3
  Traditional Culture Results: Sensitive
Escherichia coli [1]; E. coli #2 - WDCM 00090 - 6.2×E3
  Traditional Culture Results: Sensitive
Escherichia coli [1]; E. coli isolate 4 (Table 3)
  Traditional Culture Result: Resistant
Escherichia coli [1]; E. coli isolate 5 (Table 3)
  Traditional Culture Result: Sensitive
Escherichia coli [1]; E. coli isolate JJ1887
  Traditional Culture Result: Resistant
[2]; [5]
  Molecular Antibiotic Susceptibility Result: Resistant
[2]; E. coli, clinical sample of r10-r24, Ct control avg 12.97
  Ct: 12.039
[2]; [6]
  Molecular Antibiotic Susceptibility Result: Sensitive (Antimicrobial wells with pathogen load detected below the control wells (typically >2 cycle thresholds later) may be reported as Sensitive)
[2]; E. coli, clinical sample of r158-r172, Ct control avg 12.894
  Ct: 28.274
[2]; [7]
  Molecular Antibiotic Susceptibility Result: Sensitive (Antimicrobial wells with pathogen load detected below the control wells (typically >2 cycle thresholds later) may be reported as Sensitive)
[2]; E. faecalis, clinical sample of r93-r99, Ct control avg 22.011
  Ct: 29.527
[2]; [8]
  Molecular Antibiotic Susceptibility Result: sensitive
[2]; E. faecalis, clinical sample of r100-r106, Ct control avg 21.027
  Ct: 33.467
[2]; [9]
  Molecular Antibiotic Susceptibility Result: sensitive
[2]; E. faecalis, clinical sample of r107-r113, Ct control avg 20.529
  Ct: 27.555
[2]; [10]
  Molecular Antibiotic Susceptibility Result: Sensitive (Antimicrobial wells with pathogen load detected below the control wells (typically >2 cycle thresholds later) may be reported as Sensitive)
[2]; E. faecalis, clinical sample of r114-r120, Ct control avg 20.909
  Ct: 27.767
[2]; [11]
  Molecular Antibiotic Susceptibility Result: Sensitive (Antimicrobial wells with pathogen load detected below the control wells (typically >2 cycle thresholds later) may be reported as Sensitive)
[2]; E. faecalis, clinical sample of r151-r157, Ct control avg 18.551
  Ct: 32.884
[2]; [12]
  Molecular Antibiotic Susceptibility Result: Sensitive (Antimicrobial wells with pathogen load detected below the control wells (typically >2 cycle thresholds later) may be reported as Sensitive)
[2]; K. aerogenes, clinical sample of r136-r150, Ct control avg 13.854
  Ct: 16.046
[2]; [13]
  Molecular Antibiotic Susceptibility Result: Resistant
[2]; K. pneumoniae, clinical sample of r121-r135, Ct control avg […]
  Ct: 14.269
[2]; [14]
  Molecular Antibiotic Susceptibility Result: Resistant
[2]; M. morganii, clinical sample of r55-r69, Ct control avg 12.09
  Ct: 10.538
[2]; [15]
  Molecular Antibiotic Susceptibility Result: Resistant
[2]; M. morganii, clinical sample of r70-r84, Ct control avg 11.677
  Ct: 11.867
[2]; [16]
  Molecular Antibiotic Susceptibility Result: Sensitive (Antimicrobial wells with pathogen load detected below the control wells (typically >2 cycle thresholds later) may be reported as Sensitive)
[2]; P. mirabilis, clinical sample of r25-r39, Ct control avg 11.801
  Ct: 29.219
[2]; [17]
  Molecular Antibiotic Susceptibility Result: Sensitive (Antimicrobial wells with pathogen load detected below the control wells (typically >2 cycle thresholds later) may be reported as Sensitive)
[2]; P. mirabilis, clinical sample of r40-r54, Ct control avg 10.06
  Ct: 30.995
[3]; [5]
  Molecular Antibiotic Susceptibility Result: Resistant
[3]; [6]
  Molecular Antibiotic Susceptibility Result: Sensitive (Antimicrobial wells with pathogen load detected below the control wells (typically >2 cycle thresholds later) may be reported as Sensitive)
[3]; E. coli, clinical sample of r158-r172, Ct Control Avg 20.146
  Ct: 29.961
[3]; [7]
  Molecular Antibiotic Susceptibility Result: Sensitive (Antimicrobial wells with pathogen load detected below the control wells (typically >2 cycle thresholds later) may be reported as Sensitive)
[3]; E. faecalis, clinical sample of r93-r99, Ct Control Avg 22.987
  Ct: 31.697
[3]; [8]
  Molecular Antibiotic Susceptibility Result: sensitive
[3]; E. faecalis, clinical sample of r100-r106, Ct Control Avg 23.073
  Ct: 37.6
[3]; [9]
  Molecular Antibiotic Susceptibility Result: sensitive
[3]; E. faecalis, clinical sample of r107-r113, Ct Control Avg 22.144
  Ct: 29.684
[3]; [10]
  Molecular Antibiotic Susceptibility Result: Sensitive (Antimicrobial wells with pathogen load detected below the control wells (typically >2 cycle thresholds later) may be reported as Sensitive)
[3]; E. faecalis, clinical sample of r114-r120, Ct Control Avg 20.822
  Ct: 33.01
[3]; [11]
  Molecular Antibiotic Susceptibility Result: Sensitive (Antimicrobial wells with pathogen load detected below the control wells (typically >2 cycle thresholds later) may be reported as Sensitive)
[3]; E. faecalis, clinical sample of r151-r157, Ct Control Avg 20.56
  Ct: Undet
[3]; [12]
  Molecular Antibiotic Susceptibility Result: Resistant
[3]; K. aerogenes, clinical sample of r136-r150, Ct Control Avg 19.994
  Ct: 19.504
[3]; [13]
  Molecular Antibiotic Susceptibility Result: Resistant
[3]; K. pneumoniae, clinical sample of r121-r135, Ct Control Avg 24.272
  Ct: 21.189
[3]; [14]
  Molecular Antibiotic Susceptibility Result: Resistant
[3]; M. morganii, clinical sample of r55-r69, Ct Control Avg 28.86
  Ct: 25.767
[3]; [15]
  Molecular Antibiotic Susceptibility Result: Resistant
[3]; M. morganii, clinical sample of r70-r84, Ct Control Avg 27.053
  Ct: 25.947
[3]; [16]
  Molecular Antibiotic Susceptibility Result: Sensitive (Antimicrobial wells with pathogen load detected below the control wells (typically >2 cycle thresholds later) may be reported as Sensitive)
[3]; P. mirabilis, clinical sample of r25-r39, Ct Control Avg 26.064
  Ct: 34.177
[3]; [17]
  Molecular Antibiotic Susceptibility Result: Sensitive (Antimicrobial wells with pathogen load detected below the control wells (typically >2 cycle thresholds later) may be reported as Sensitive)
[3]; P. mirabilis, clinical sample of r40-r54, Ct Control Avg 26.987
  Ct: 35.741
Escherichia coli [4]; E. coli isolate 4, at sensitive breakpoint
  Molecular Antimicrobial Susceptibility Result: Resistant
Escherichia coli [4]; E. coli isolate 5, Ct at control (average) 21.0933
  Ct at Sensitive Breakpoint: 24.64
Escherichia coli [4]; E. coli isolate 5, at sensitive breakpoint
  Molecular Antimicrobial Susceptibility Result: Sensitive (Antimicrobial wells with pathogen load detected below the control wells (typically >2 cycle thresholds later) may be reported as Sensitive)
